Holding throughout (assay type): physicochemical
The nature of series [1]: Encapsulation efficiency of lipid nanoparticles, Quant-it Ribogreen RNA quantification assay. The settings on record: LNP with mRNA. As to the method: (§1) Briefly, a cationic lipid provided herein, DSPC, cholesterol, and PEG-lipid were solubilized in ethanol at a molar ratio of 50:10:38.5:1.5, and mRNA were diluted in 10 to 50 mM citrate buffer, pH=4. The LNPs were prepared at a total lipid to mRNA weight ratio of approximately 10:1 to 30:1 by mixing the ethanolic lipid solution with the aqueous mRNA solution at a volume ratio of 1:3 using a microfluidic apparatus, total flow rate ranging from 9-30 mL/min. Ethanol were thereby removed and replaced by DPBS using dialysis. Finally, the lipid nanoparticles were filtered through a 0.2 μm sterile filter.
(§2) Lipid nanoparticle size were determined by dynamic light scattering using a Malvern Zetasizer Nano ZS (Malvern UK) using a 173° backscatter detection mode. The encapsulation efficiency of lipid nanoparticles were determined using a Quant-it Ribogreen RNA quantification assay kit (Thermo Fisher Scientific, UK) according to the manufacturer's instructions.

Series [2] is described as follows: Lipid nanoparticle size and polydispersity by dynamic light scattering (Malvern Zetasizer Nano ZS). The conditions noted are these: LNP of cationic lipid/DSPC/cholesterol/PEG-lipid 50:10:38.5:1.5 with mRNA. As to the method: as §1, §2
The nature of series [3]: Apparent pKa of LNP formulations, TNS fluorescence assay. The settings on record: LNP cationic lipid/DSPC/cholesterol/DMG-PEG 50/10/38.5/1.5 mol %, pH 3 to 9. As to the method:
As reported in literature, the apparent pKa of LNP formulations correlates with the delivery efficiency of LNPs for nucleic acids in vivo. The apparent pKa of each formulation was determined using an assay based on fluorescence of 2-(p-toluidino)-6-napthalene sulfonic acid (TNS). LNP formulations comprising of cationic lipid/DSPC/cholesterol/DMG-PEG (50/10/38.5/1.5 mol %) in PBS were prepared as described above. TNS was prepared as a 300 uM stock solution in distilled water. LNP formulations were diluted to 0.1 mg/ml total lipid in 3 mL of buffered solutions containing 50 mM sodium citrate, 50 mM sodium phosphate, 50 mM sodium borate, and 30 mM sodium chloride where the pH ranged from 3 to 9. An aliquot of the TNS solution was added to give a final concentration of 0.1 mg/ml and following vortex mixing fluorescence intensity was measured at room temperature in a Molecular Devices Spectramax iD3 spectrometer using excitation and mission wavelengths of 325 nm and 435 nm. A sigmoidal best fit analysis was applied to the fluorescence data and the pKa value was measured as the pH giving rise to half-maximal fluorescent intensity.

With `CCCCCCCCCCCCOCC(CN(CCO)C1CCC1)OCCCCCCCCCCCC` (stereo not drawn) [Compound 1], the “Encapsulation Efficiency” value in series [1] is 96.3%. In series [2], the polydispersity worked out at 0.12 and the “size (nm)” value is on record as 72.4 nm. For the same molecule, the “Apparant Pka” value in series [3] turned out to be 5.902.

Turning to `CCCCCCCCCCCCOCC(CN(CCO)C1CCC1)OC(=O)CCCCCCCCCCC` (stereo not drawn) [Compound 2], the “Encapsulation Efficiency” value in series [1] is listed as 94.5%. Moreover, in series [2], the polydispersity is 0.094 and the “size (nm)” value turned out to be 69.05 nm. Further, the “Apparant Pka” value in series [3] was found to be 5.177.

As to `CCCCCCCCCCCCOCC(CN(CCO)C1CCC1)OC(=O)CCCCC` (stereo not drawn) [Compound 3], in series [1], the “Encapsulation Efficiency” value is listed as 92.8%. In series [2], the polydispersity turned out to be 0.124 and the “size (nm)” value was 105.6 nm.

Regarding `CCCCCCCCCCCCOCC(CN(CCO)C1CCC1)OCCCCCC(=O)OCC(CCCCCC)CCCCCCCC` (stereo not drawn) [Compound 4], the “Encapsulation Efficiency” value in series [1] came out at 94.6%. For the same molecule, in series [2], the polydispersity amounted to 0.2 and the “size (nm)” value turned out to be 54.52 nm. The “Apparant Pka” value in series [3] is listed as 5.083.

`CCCCCCCCCCCCOCC(CN(C)CCN(CCO)C1CCCC1)OCCCCCC` (stereo not drawn) [Compound 5]: the “Encapsulation Efficiency” value in series [1] is listed as 92.4%. In series [2], the polydispersity worked out at 0.384 and the “size (nm)” value was determined as 78.36 nm. The “Apparant Pka” value in series [3] was 7.315.

For `CCCCCCCCCCCCOCC(CN(C)CCN(CCO)C1CCCCC1)OCCCCCCCCCCCC` (stereo not drawn) [Compound 6], in series [1], the “Encapsulation Efficiency” value amounted to 93.4%. Besides, in series [2], the polydispersity was 0.241 and the “size (nm)” value is 126.4 nm. In addition, the “Apparant Pka” value in series [3] came to 7.035.

As for `CCCCCCCCCCCCOCC(O)CN(CCCCCC(=O)OCC(CCCCCC)CCCCCCCC)CCN(C)C` (stereo not drawn) [Compound 7], in series [1], the “Encapsulation Efficiency” value was 96.7%. For the same molecule, in series [2], the polydispersity came to 0.063 and the “size (nm)” value was 85.46 nm. For the same molecule, in series [3], the “Apparant Pka” value was determined as 8.7.

Regarding `CCCCCCCCCCCCOCC(O)CN(CCCCCC(=O)OCC(CCCCCC)CCCCCCCC)CCN1CCCCC1` (stereo not drawn) [Compound 8], in series [1], the “Encapsulation Efficiency” value is reported as 88.2%. Besides, in series [2], the polydispersity is 0.156 and the “size (nm)” value is given as 102.9 nm. In addition, in series [3], the “Apparant Pka” value was 7.327.

As for `CCCCCCCCCCCCOCC(CN(CCCCCC(=O)OCC(CCCCCC)CCCCCCCC)CCN1CCCCC1)OC(C)=O` (stereo not drawn) [Compound 9], the “Encapsulation Efficiency” value in series [1] stood at 90.8%. Besides, in series [2], the polydispersity came to 0.144 and the “size (nm)” value is reported as 70.97 nm.

As to `CCCCCCCCCCCCOCC(O)CN(CCCCCC(=O)OCC(CCCCCC)CCCCCCCC)CCN1CCCC1` (stereo not drawn) [Compound 10], the “Encapsulation Efficiency” value in series [1] was 94.8%. In addition, in series [2], the polydispersity worked out at 0.356 and the “size (nm)” value amounted to 84.22 nm.

Turning to `CCCCCCCCCCCCOCC(O)CN(CCCCCC(=O)OCC(CCCCCC)CCCCCCCC)CCN(CC)CC` (stereo not drawn) [Compound 11], in series [1], the “Encapsulation Efficiency” value came to 82.2%. In series [2], the polydispersity is on record as 0.196 and the “size (nm)” value is 77.98 nm. For the same molecule, in series [3], the “Apparant Pka” value worked out at 7.701.

On to `CCCCCCCCCCCCOCC(O)CN(CCO)CCCCCC(=O)OCC(CCCCCC)CCCCCCCC` (stereo not drawn) [Compound 13], for which the “Encapsulation Efficiency” value in series [1] came out at 94.2%. In series [2], the polydispersity was determined as 0.128 and the “size (nm)” value was found to be 61.3 nm. In addition, the “Apparant Pka” value in series [3] stood at 7.089.

For `CCCCCCCCCCCCOCC(CN(CCO)CCCCCC(=O)OCC(CCCCCC)CCCCCCCC)OC(=O)CCCCC` (stereo not drawn) [Compound 14], the “Encapsulation Efficiency” value in series [1] is reported as 86.1%. In series [2], the polydispersity was 0.4 and the “size (nm)” value was 56.31 nm. For the same molecule, the “Apparant Pka” value in series [3] is 4.536.

With `CCCCCCCCCCCCOCC(CN(CCCCCC(=O)OCC(CCCCCC)CCCCCCCC)CCN1CCCCC1)OC(=O)CCCCC` (stereo not drawn) [Compound 15], the “Encapsulation Efficiency” value in series [1] was 93.5%. Also, in series [2], the polydispersity is 0.139 and the “size (nm)” value worked out at 62.11 nm. For the same molecule, in series [3], the “Apparant Pka” value stood at 5.875.

`CCCCCCCCCCCCOCC(CN(CCCCCC)CCN(CCO)C1CCC1)OCCCCCCCCCCCC` (stereo not drawn) [Compound 16]: in series [1], the “Encapsulation Efficiency” value was 89.8%. Besides, in series [2], the polydispersity is given as 0.060 and the “size (nm)” value was found to be 74.31 nm.

As to `CCCCCCCCCCCCOCC(CN(CCCCCCCCCCCC)CCN(CCO)C1CCC1)OCCCCCCCCCCCC` (stereo not drawn) [Compound 17], the “Encapsulation Efficiency” value in series [1] is 92.8%. In series [2], the polydispersity was determined as 0.186 and the “size (nm)” value came to 79.43 nm. In series [3], the “Apparant Pka” value was determined as 5.835.

Turning to `CCCCCCCCCCCCOCC(CN(CCO)CCCCCC(=O)OCC(CCCCCC)CCCCCCCC)OC(C)=O` (stereo not drawn) [Compound 18], in series [1], the “Encapsulation Efficiency” value is on record as 90.6%. Also, in series [2], the polydispersity was 0.17 and the “size (nm)” value is 65.06 nm. Further, the “Apparant Pka” value in series [3] is 4.916.

As for `CCCCCCCCCCCCOCC(CN(CCO)CCCCCC(=O)OCC(CCCCCC)CCCCCCCC)OC(=O)CC` (stereo not drawn) [Compound 19], the “Encapsulation Efficiency” value in series [1] is on record as 88.5%. For the same molecule, in series [2], the polydispersity was 0.156 and the “size (nm)” value is given as 117.5 nm. In addition, in series [3], the “Apparant Pka” value was determined as 4.957.

On to `CCCCCCCCCCCCOCC(CN(CCCCCC(=O)OCC(CCCCCC)CCCCCCCC)CCN(CCO)C1CCC1)OC(C)=O` (stereo not drawn) [Compound 20], for which, in series [1], the “Encapsulation Efficiency” value was 90.7%. In addition, in series [2], the polydispersity was 0.145 and the “size (nm)” value stood at 67.7 nm. For the same molecule, the “Apparant Pka” value in series [3] is given as 5.96.

In the case of `CCCCCCCCCCCCOCC(CN(CCCCCC(=O)OCC(CCCCCC)CCCCCCCC)CCN(CCO)C1CCCCC1)OCCCCCC` (stereo not drawn) [Compound 25], the “Encapsulation Efficiency” value in series [1] is on record as 94.70%. Also, in series [2], the polydispersity stood at 0.112 and the “size (nm)” value was found to be 58.01 nm.

Consider `CCCCCCCCCCCCOCC(CN(C)CCN(CCO)C1CCC1)OC(=O)CCCC` (stereo not drawn) [Compound 40], for which the “Encapsulation Efficiency” value in series [1] was 36.4%. Moreover, in series [2], the polydispersity is listed as 0.326 and the “size (nm)” value came to 230 nm.

Take `CCCCCCCCC(CCCCCCCC)CNC(=O)CCOCC(CN(C)CCN(CCO)C1CCCCC1)OCCC(=O)NCC(CCCCCCCC)CCCCCCCC` (stereo not drawn) [Compound 52]: the “Encapsulation Efficiency” value in series [1] came out at 96.5%. In addition, in series [2], the polydispersity is listed as 0.14 and the “size (nm)” value is 66.03 nm.

Regarding `CCCCCCCCC(CCCCCCCC)CNC(=O)CCOCC(CN(C)CCN(CCO)C1CCCCCC1)OCCC(=O)NCC(CCCCCCCC)CCCCCCCC` (stereo not drawn) [Compound 58], the “Encapsulation Efficiency” value in series [1] is on record as 97.3%. In addition, in series [2], the polydispersity amounted to 0.032 and the “size (nm)” value came to 56.37 nm.

Turning to `CCCCCCC(CCCCCC)COC(=O)CCCCCN(CCN1CCC(O)C1)CC(COC(=O)CCCCC)OC(=O)CCCCC` (stereo not drawn) [Compound 59], in series [1], the “Encapsulation Efficiency” value came to 96.1%. Further, in series [2], the polydispersity is reported as 0.049 and the “size (nm)” value came out at 94.89 nm.

For the molecule `CCCCC/C=C\C/C=C\CCCCCCCC(=O)OCC(CN(C)CCN(CCO)C1CCC1)OC(=O)CCCCCCC/C=C\C/C=C\CCCCC` (stereo not drawn) [Compound 64], in series [1], the “Encapsulation Efficiency” value was found to be 91.6%. For the same molecule, in series [2], the polydispersity is reported as 0.075 and the “size (nm)” value amounted to 73.8 nm.

Turning to `CCCCCCCCC(CCCCCCCC)COC(=O)CCOCC(CN(C)CCN(CCO)C1CCCCC1)OCCC(=O)OCC(CCCCCCCC)CCCCCCCC` (stereo not drawn) [Compound 72], the “Encapsulation Efficiency” value in series [1] is on record as 95.22%. Moreover, in series [2], the polydispersity was determined as 0.055 and the “size (nm)” value stood at 81.89 nm.

Consider `CCCCCCCCCCCCCCCC(=O)OCC(CCCCN(CCO)C1CCCCC1)COC(=O)CC(CCCCCC)CCCCCCCC` (stereo not drawn) [Compound 86], for which the “Encapsulation Efficiency” value in series [1] turned out to be 92.81%. Further, in series [2], the polydispersity amounted to 0.03 and the “size (nm)” value was 73.58 nm.

Take `CCCCCCCCCCC(=O)OCC(CCCCN(CCO)C1CCCCCC1)COC(=O)CC(CCCCCC)CCCCCCCC` (stereo not drawn) [Compound 92]: the “Encapsulation Efficiency” value in series [1] came to 90.25%. Moreover, in series [2], the polydispersity came out at 0.051 and the “size (nm)” value is listed as 70.85 nm.

As to `CCCCCCCCC(CCCCCC)COC(=O)CCOCC(CN(CCCCCC)CCN(CCO)C1CCCCCC1)OCCC(=O)OCC(CCCCCC)CCCCCCCC` (stereo not drawn) [Compound 107], the “Encapsulation Efficiency” value in series [1] turned out to be 93.66%. In addition, in series [2], the polydispersity was 0.067 and the “size (nm)” value came out at 61.18 nm.

Consider `CCCCCCCCCC(CCCCC)COC(=O)CCOCC(CN(CCO)C1CCC1)OCCC(=O)OCC(CCCCCC)CCCCCCCC` (stereo not drawn) [Compound 108], for which, in series [1], the “Encapsulation Efficiency” value came to 92.04%. In addition, in series [2], the polydispersity is reported as 0.097 and the “size (nm)” value amounted to 47.87 nm.

These data come from patent US11964052B2, “Lipid compounds and lipid nanoparticle compositions” (SUZHOU ABOGEN BIOSCIENCES CO., LTD., priority 2021, dated 2024).
